Data taken from patent US11746116B2, “Antibiotic resistance breakers” (KING'S COLLEGE LONDON, priority 2017, dated 2023).
Several values for one entry are separate records, joined by “and”; a condition that tells them apart may be missing. Identical values can stand only once.

Legend:
[1] = system: Staphylococcus aureus ATCC29213; experiment: Murine thigh infection model, thigh bacterial burden; type: in vivo; details: neutropenic mice; for Log10 reduction from vehicle control / Thigh bacterial burden, Group Geometric mean / Thigh bacterial burden, Log10 Group Geometric mean: 8 h, 14 h post-infection, 18 h post infection; for decrease of thigh bacterial burden compared to vehicle group: 8 h and 14 h post infection, burden 18 h post infection
[2] = thigh infection study, treated groups, relative to day of infection
[3] = biological target: Safetyscreen44 off target panel (Homo sapiens, UniProt P07550)
[4] = biological target: Safetyscreen44 off target panel (Homo sapiens, UniProt P29274)
[5] = biological target: Safetyscreen44 off target panel (Homo sapiens, UniProt P31645)
[6] = biological target: Safetyscreen44 off target panel (Homo sapiens, UniProt P34972)
[7] = biological target: Safetyscreen44 off target panel (Homo sapiens, UniProt Q14432)
[8] = biological target: Safetyscreen44 off target panel (Rattus norvegicus, UniProt P28564)
[9] = Single dose pharmacokinetics study, oral route; details: 20 mg/kg
[10] = male, CD-1 (ICR), mouse, in vivo, po

Safetyscreen44 off target panel (Homo sapiens, UniProt P31645), sequence (P31645 whole entry): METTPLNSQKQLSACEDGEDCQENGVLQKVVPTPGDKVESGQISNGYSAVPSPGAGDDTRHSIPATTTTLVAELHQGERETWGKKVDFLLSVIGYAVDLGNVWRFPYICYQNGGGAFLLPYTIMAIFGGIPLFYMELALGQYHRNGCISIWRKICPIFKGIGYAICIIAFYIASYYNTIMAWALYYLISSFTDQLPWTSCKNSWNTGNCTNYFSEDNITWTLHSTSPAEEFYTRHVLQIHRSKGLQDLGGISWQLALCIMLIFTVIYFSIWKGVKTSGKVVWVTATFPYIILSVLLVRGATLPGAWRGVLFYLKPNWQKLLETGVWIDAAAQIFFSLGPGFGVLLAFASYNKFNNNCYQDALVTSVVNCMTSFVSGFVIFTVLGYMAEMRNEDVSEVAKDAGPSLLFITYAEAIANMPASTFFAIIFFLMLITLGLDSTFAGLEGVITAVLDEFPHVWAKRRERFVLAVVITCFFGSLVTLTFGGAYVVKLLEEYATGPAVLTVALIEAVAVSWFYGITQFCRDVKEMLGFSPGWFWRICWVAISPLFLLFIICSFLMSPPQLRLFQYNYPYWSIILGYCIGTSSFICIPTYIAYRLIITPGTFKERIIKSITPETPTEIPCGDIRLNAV
Safetyscreen44 off target panel (Homo sapiens, UniProt Q14432), sequence (Q14432 whole entry): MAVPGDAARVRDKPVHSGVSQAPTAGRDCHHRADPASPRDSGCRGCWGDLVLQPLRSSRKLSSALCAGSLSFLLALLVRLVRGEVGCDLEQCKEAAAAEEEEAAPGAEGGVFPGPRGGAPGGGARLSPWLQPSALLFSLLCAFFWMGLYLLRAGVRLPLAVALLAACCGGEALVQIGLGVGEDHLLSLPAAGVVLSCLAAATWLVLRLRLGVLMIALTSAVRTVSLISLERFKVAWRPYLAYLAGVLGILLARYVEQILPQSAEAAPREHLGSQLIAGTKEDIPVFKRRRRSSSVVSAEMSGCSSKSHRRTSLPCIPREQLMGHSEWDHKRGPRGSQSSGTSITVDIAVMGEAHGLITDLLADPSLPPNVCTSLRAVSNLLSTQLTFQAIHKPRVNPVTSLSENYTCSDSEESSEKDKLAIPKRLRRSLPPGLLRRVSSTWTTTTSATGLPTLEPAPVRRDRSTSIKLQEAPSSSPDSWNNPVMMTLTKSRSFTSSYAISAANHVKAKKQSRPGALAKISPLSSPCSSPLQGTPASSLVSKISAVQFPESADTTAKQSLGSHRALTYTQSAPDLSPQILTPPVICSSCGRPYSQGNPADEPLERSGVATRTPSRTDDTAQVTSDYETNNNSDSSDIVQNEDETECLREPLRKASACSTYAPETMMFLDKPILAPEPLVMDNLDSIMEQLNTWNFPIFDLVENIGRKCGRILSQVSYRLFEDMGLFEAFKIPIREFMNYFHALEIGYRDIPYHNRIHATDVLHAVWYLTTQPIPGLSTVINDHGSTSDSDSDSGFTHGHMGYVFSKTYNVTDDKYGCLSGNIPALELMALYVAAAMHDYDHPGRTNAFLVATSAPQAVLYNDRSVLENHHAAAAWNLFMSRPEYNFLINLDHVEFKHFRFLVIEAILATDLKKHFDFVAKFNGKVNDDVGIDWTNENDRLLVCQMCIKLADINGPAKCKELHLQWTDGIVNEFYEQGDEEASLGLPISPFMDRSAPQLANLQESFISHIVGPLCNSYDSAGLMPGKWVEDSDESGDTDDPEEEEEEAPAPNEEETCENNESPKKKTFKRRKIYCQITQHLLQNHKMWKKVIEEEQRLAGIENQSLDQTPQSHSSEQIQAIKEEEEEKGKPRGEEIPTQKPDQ
Safetyscreen44 off target panel (Homo sapiens, UniProt P29274), sequence (P29274 whole entry): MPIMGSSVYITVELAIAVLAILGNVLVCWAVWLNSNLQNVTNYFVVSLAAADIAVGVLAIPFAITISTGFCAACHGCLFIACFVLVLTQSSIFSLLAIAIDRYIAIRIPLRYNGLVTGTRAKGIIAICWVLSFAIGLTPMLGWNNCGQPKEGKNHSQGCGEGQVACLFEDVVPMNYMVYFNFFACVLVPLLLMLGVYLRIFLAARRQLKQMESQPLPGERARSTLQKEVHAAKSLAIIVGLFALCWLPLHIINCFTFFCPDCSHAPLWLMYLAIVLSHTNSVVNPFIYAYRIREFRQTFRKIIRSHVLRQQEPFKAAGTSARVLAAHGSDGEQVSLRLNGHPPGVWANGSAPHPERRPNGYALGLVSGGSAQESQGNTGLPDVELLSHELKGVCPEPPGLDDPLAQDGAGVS
Safetyscreen44 off target panel (Homo sapiens, UniProt P34972), sequence (P34972 whole entry): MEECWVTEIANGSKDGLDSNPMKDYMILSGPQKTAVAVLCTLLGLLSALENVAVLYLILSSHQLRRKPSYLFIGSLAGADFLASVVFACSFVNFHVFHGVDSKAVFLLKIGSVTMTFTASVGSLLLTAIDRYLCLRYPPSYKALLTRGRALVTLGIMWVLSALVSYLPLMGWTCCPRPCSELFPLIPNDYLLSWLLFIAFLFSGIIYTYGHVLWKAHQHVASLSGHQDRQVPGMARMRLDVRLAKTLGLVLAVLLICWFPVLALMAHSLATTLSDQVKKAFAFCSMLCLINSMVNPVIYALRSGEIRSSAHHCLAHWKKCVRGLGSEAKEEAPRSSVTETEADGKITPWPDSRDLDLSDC
Safetyscreen44 off target panel (Rattus norvegicus, UniProt P28564), sequence (P28564 whole entry): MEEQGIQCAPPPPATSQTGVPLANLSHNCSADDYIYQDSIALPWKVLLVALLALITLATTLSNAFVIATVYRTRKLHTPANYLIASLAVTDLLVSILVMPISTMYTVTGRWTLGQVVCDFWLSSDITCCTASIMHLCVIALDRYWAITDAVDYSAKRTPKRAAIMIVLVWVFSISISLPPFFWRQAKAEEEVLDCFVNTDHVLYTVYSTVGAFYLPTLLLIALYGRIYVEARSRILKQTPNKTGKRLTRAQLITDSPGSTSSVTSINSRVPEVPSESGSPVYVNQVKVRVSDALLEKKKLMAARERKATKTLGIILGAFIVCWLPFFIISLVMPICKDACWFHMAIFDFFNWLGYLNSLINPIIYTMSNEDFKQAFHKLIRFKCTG
Safetyscreen44 off target panel (Homo sapiens, UniProt P07550), sequence (P07550 whole entry): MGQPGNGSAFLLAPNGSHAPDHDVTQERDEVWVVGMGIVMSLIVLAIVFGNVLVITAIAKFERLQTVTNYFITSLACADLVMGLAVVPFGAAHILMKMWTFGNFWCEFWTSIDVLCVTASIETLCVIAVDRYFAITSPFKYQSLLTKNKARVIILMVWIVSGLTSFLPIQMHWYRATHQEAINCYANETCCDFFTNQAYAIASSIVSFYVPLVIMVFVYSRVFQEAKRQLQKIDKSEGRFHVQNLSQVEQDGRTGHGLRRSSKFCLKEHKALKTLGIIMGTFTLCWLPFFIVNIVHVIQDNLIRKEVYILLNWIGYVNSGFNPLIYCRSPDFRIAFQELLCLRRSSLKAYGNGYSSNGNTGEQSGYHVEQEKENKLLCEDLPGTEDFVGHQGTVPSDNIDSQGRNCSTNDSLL

C[C@H]1COc2c(N3CC[C@@H](Nc4ncccn4)C3)c(F)cc3c(=O)c(C(=O)O)cn1c23 [KSN-82-L22]
Log10 reduction from vehicle control ([1]; 20 mg/kg PO at 2 h): 5.00 log10 CFU/g
Thigh bacterial burden, Group Geometric mean ([1]; 20 mg/kg PO at 2 h): 2.01 × 10^3 cfu/g
Thigh bacterial burden, Log10 Group Geometric mean ([1]; 20 mg/kg PO at 2 h): 3.30 log10 cfu/g
Log10 reduction from vehicle control ([1]; 50 mg/kg PO at 2 h): 5.16 log10 CFU/g
Thigh bacterial burden, Group Geometric mean ([1]; 50 mg/kg PO at 2 h): 1.37 × 10^3 cfu/g
Thigh bacterial burden, Log10 Group Geometric mean ([1]; 50 mg/kg PO at 2 h): 3.14 log10 cfu/g
decrease of thigh bacterial burden compared to vehicle group ([1]; 20 mg/kg/dose oral at 2 h, 20 mg/kg): 5 log10 CFU/g and > 5 log10 CFU/g
decrease of thigh bacterial burden compared to vehicle group ([1]; 50 mg/kg/dose oral at 2 h, 50 mg/kg): 5.16 log10 CFU/g and > 5 log10 CFU/g
body weights following infection [2]: slightly increased
% inhibition, beta 2 (h) (antagonist radioligand) [3]: 11.3086%
% inhibition, A2A (h) (agonist radioligand) [4]: 53.628%
% inhibition, 5-HT transporter (h) (antagonist radioligand) [5]: −16.9663%
% inhibition, CB2 (h) (agonist radioligand) [6]: 0%
% inhibition, PDE3A (h) [7]: 7.502%
% inhibition, 5-HT1B (antagonist radioligand) [8]: −16.7063%
Clast ([9]; PO, Male CD1 mouse, blood, Mean): 628 ng/mL
AUC [9, 10]: 8230 ng·h/mL and 19.3 µM·h
AUC(0-inf) [9, 10]: 31 µM·h
Cmax [9, 10]: 4.01 µM and 2960 ng/mL
Tmax [9, 10]: 1 h
